Results as given in PubChem BioAssay (NCI).
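The compound was tested at five concentrations on cells cultured in 96-well plates, with a 48-hour exposure period. TGI: total growth inhibition.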

Assays:
Experiment in all cases: inhibition of tumour cell growth, NCI panel, 48 h
786-0 renal = tested on: 786-0 renal
A498 renal = tested on: A498 renal
A549 NSCLC = tested on: A549 NSCLC
ACHN renal = tested on: ACHN renal
BT-549 breast = tested on: BT-549 breast
CAKI-1 renal = tested on: CAKI-1 renal
CCRF-CEM leukemia = tested on: CCRF-CEM leukemia
COLO 205 colon = tested on: COLO 205 colon
DU-145 prostate = tested on: DU-145 prostate
EKVX NSCLC = tested on: EKVX NSCLC
HCC-2998 colon = tested on: HCC-2998 colon
HCT-116 colon = tested on: HCT-116 colon
HCT-15 colon = tested on: HCT-15 colon
HL-60(TB) leukemia = tested on: HL-60(TB) leukemia
HOP-62 NSCLC = tested on: HOP-62 NSCLC
HOP-92 NSCLC = tested on: HOP-92 NSCLC
HS 578T breast = tested on: HS 578T breast
HT29 colon = tested on: HT29 colon
IGROV1 ovarian = tested on: IGROV1 ovarian
K-562 leukemia = tested on: K-562 leukemia
KM12 colon = tested on: KM12 colon
LOX IMVI melanoma = tested on: LOX IMVI melanoma
M14 melanoma = tested on: M14 melanoma
MALME-3M melanoma = tested on: MALME-3M melanoma
MCF7 breast = tested on: MCF7 breast
MDA-MB-231 breast = tested on: MDA-MB-231 breast
MDA-N = tested on: MDA-N
MOLT-4 leukemia = tested on: MOLT-4 leukemia
NCI-H226 lung = tested on: NCI-H226 lung
NCI-H23 lung = tested on: NCI-H23 lung
NCI-H460 lung = tested on: NCI-H460 lung
NCI-H522 lung = tested on: NCI-H522 lung
NCI/ADR-RES ovarian = tested on: NCI/ADR-RES ovarian
OVCAR-3 ovarian = tested on: OVCAR-3 ovarian
OVCAR-4 ovarian = tested on: OVCAR-4 ovarian
OVCAR-5 ovarian = tested on: OVCAR-5 ovarian
OVCAR-8 ovarian = tested on: OVCAR-8 ovarian
PC-3 prostate = tested on: PC-3 prostate
RPMI-8226 leukemia = tested on: RPMI-8226 leukemia
RXF 393 renal = tested on: RXF 393 renal
SF-268 CNS = tested on: SF-268 CNS
SF-295 CNS = tested on: SF-295 CNS
SF-539 CNS = tested on: SF-539 CNS
SK-MEL-2 melanoma = tested on: SK-MEL-2 melanoma
SK-MEL-28 melanoma = tested on: SK-MEL-28 melanoma
SK-MEL-5 melanoma = tested on: SK-MEL-5 melanoma
SK-OV-3 ovarian = tested on: SK-OV-3 ovarian
SN12C renal = tested on: SN12C renal
SNB-19 CNS = tested on: SNB-19 CNS
SNB-75 CNS = tested on: SNB-75 CNS
SR leukemia = tested on: SR leukemia
SW-620 colon = tested on: SW-620 colon
T-47D breast = tested on: T-47D breast
TK-10 renal = tested on: TK-10 renal
U251 CNS = tested on: U251 CNS
UACC-257 melanoma = tested on: UACC-257 melanoma
UACC-62 melanoma = tested on: UACC-62 melanoma
UO-31 renal = tested on: UO-31 renal
MDA-MB-435 = tested on: MDA-MB-435

Question: COc1cc(Oc2nc3c(N)cc(C(F)(F)F)cc3nc2-c2ccccc2)cc(OC)c1OC was tested. Which TGI (786-0 renal) did it give?
Answer: > 41.1 µM

Question: And the TGI (A498 renal)?
Answer: 81.5 µM

Question: What about the TGI (A549 NSCLC) of the same compound?
Answer: > 100 µM

Question: And the TGI (ACHN renal)?
Answer: 32.5 µM

Question: And the TGI (BT-549 breast)?
Answer: 34.5 µM

Question: What about the TGI (CAKI-1 renal) of the same compound?
Answer: > 45.2 µM

Question: What about the TGI (CCRF-CEM leukemia) of the same compound?
Answer: > 31.6 µM

Question: And the TGI (COLO 205 colon)?
Answer: > 80.7 µM

Question: And the TGI (DU-145 prostate)?
Answer: > 100 µM

Question: What about the TGI (EKVX NSCLC) of the same compound?
Answer: > 100 µM

Question: What about the TGI (HCC-2998 colon) of the same compound?
Answer: > 55.1 µM

Question: What about the TGI (HCT-116 colon) of the same compound?
Answer: > 45.3 µM

Question: And the TGI (HCT-15 colon)?
Answer: > 100 µM

Question: What about the TGI (HL-60(TB) leukemia) of the same compound?
Answer: > 100 µM

Question: What about the TGI (HOP-62 NSCLC) of the same compound?
Answer: > 46.7 µM

Question: And the TGI (HOP-92 NSCLC)?
Answer: > 65.4 µM

Question: And the TGI (HS 578T breast)?
Answer: > 53.8 µM

Question: And the TGI (HT29 colon)?
Answer: 5.31 µM

Question: And the TGI (IGROV1 ovarian)?
Answer: > 24.3 µM

Question: And the TGI (K-562 leukemia)?
Answer: 6.6 µM

Question: And the TGI (KM12 colon)?
Answer: > 100 µM

Question: And the TGI (LOX IMVI melanoma)?
Answer: > 100 µM

Question: And the TGI (M14 melanoma)?
Answer: > 100 µM

Question: What about the TGI (MALME-3M melanoma) of the same compound?
Answer: 11.5 µM

Question: And the TGI (MCF7 breast)?
Answer: > 50.5 µM

Question: And the TGI (MDA-MB-231 breast)?
Answer: > 100 µM

Question: And the TGI (MDA-N)?
Answer: 3.08 µM

Question: What about the TGI (MOLT-4 leukemia) of the same compound?
Answer: > 100 µM

Question: What about the TGI (NCI-H226 lung) of the same compound?
Answer: > 78.2 µM

Question: And the TGI (NCI-H23 lung)?
Answer: > 63.6 µM

Question: What about the TGI (NCI-H460 lung) of the same compound?
Answer: > 100 µM

Question: And the TGI (NCI-H522 lung)?
Answer: 18.8 µM

Question: And the TGI (NCI/ADR-RES ovarian)?
Answer: > 26.1 µM

Question: What about the TGI (OVCAR-3 ovarian) of the same compound?
Answer: 13.5 µM

Question: What about the TGI (OVCAR-4 ovarian) of the same compound?
Answer: > 100 µM

Question: What about the TGI (OVCAR-5 ovarian) of the same compound?
Answer: > 100 µM

Question: And the TGI (OVCAR-8 ovarian)?
Answer: > 46.3 µM

Question: And the TGI (PC-3 prostate)?
Answer: 29.5 µM

Question: And the TGI (RPMI-8226 leukemia)?
Answer: > 100 µM

Question: And the TGI (RXF 393 renal)?
Answer: 52 µM

Question: What about the TGI (SF-268 CNS) of the same compound?
Answer: > 100 µM

Question: And the TGI (SF-295 CNS)?
Answer: > 29 µM

Question: And the TGI (SF-539 CNS)?
Answer: 14.3 µM

Question: What about the TGI (SK-MEL-2 melanoma) of the same compound?
Answer: 21 µM

Question: What about the TGI (SK-MEL-28 melanoma) of the same compound?
Answer: > 68.7 µM

Question: What about the TGI (SK-MEL-5 melanoma) of the same compound?
Answer: 48.6 µM

Question: And the TGI (SK-OV-3 ovarian)?
Answer: > 66.5 µM

Question: What about the TGI (SN12C renal) of the same compound?
Answer: > 100 µM

Question: And the TGI (SNB-19 CNS)?
Answer: 27.6 µM

Question: What about the TGI (SNB-75 CNS) of the same compound?
Answer: 26 µM

Question: And the TGI (SR leukemia)?
Answer: > 100 µM

Question: What about the TGI (SW-620 colon) of the same compound?
Answer: > 26.2 µM

Question: What about the TGI (T-47D breast) of the same compound?
Answer: > 100 µM

Question: What about the TGI (TK-10 renal) of the same compound?
Answer: > 100 µM

Question: What about the TGI (U251 CNS) of the same compound?
Answer: > 45.7 µM

Question: What about the TGI (UACC-257 melanoma) of the same compound?
Answer: 43.9 µM

Question: And the TGI (UACC-62 melanoma)?
Answer: 15.9 µM

Question: And the TGI (UO-31 renal)?
Answer: > 100 µM

Question: What does the source list for CCOc1ncn(-c2ccc(NC(=S)NC34CC5CC(CC(C5)C3)C4)cc2)n1?
Answer: TGI (786-0 renal): > 100 µM; TGI (A549 NSCLC): > 100 µM; TGI (BT-549 breast): > 100 µM; TGI (CCRF-CEM leukemia): > 100 µM; TGI (COLO 205 colon): > 100 µM; TGI (DU-145 prostate): > 100 µM; TGI (EKVX NSCLC): > 100 µM; TGI (HCC-2998 colon): > 100 µM; TGI (HCT-116 colon): > 100 µM; TGI (HCT-15 colon): > 100 µM; TGI (HL-60(TB) leukemia): > 100 µM; TGI (HOP-62 NSCLC): > 100 µM; TGI (HOP-92 NSCLC): 60.6 µM; TGI (HT29 colon): > 100 µM; TGI (IGROV1 ovarian): > 100 µM; TGI (K-562 leukemia): > 100 µM; TGI (KM12 colon): > 100 µM; TGI (LOX IMVI melanoma): > 100 µM; TGI (M14 melanoma): > 100 µM; TGI (MCF7 breast): > 100 µM; TGI (MDA-MB-231 breast): > 100 µM; TGI (MDA-MB-435): > 100 µM; TGI (MDA-N): > 100 µM; TGI (MOLT-4 leukemia): > 100 µM; TGI (NCI-H23 lung): > 100 µM; TGI (NCI-H460 lung): > 100 µM; TGI (NCI-H522 lung): > 100 µM; TGI (OVCAR-3 ovarian): > 100 µM; TGI (OVCAR-4 ovarian): > 100 µM; TGI (OVCAR-5 ovarian): > 100 µM; TGI (OVCAR-8 ovarian): 64.3 µM; TGI (PC-3 prostate): > 100 µM; TGI (RPMI-8226 leukemia): > 100 µM; TGI (SF-268 CNS): > 100 µM; TGI (SF-295 CNS): > 100 µM; TGI (SF-539 CNS): > 100 µM; TGI (SK-MEL-28 melanoma): > 100 µM; TGI (SK-MEL-5 melanoma): > 100 µM; TGI (SK-OV-3 ovarian): > 100 µM; TGI (SN12C renal): > 100 µM; TGI (SNB-19 CNS): > 100 µM; TGI (SNB-75 CNS): 76.2 µM; TGI (SR leukemia): > 100 µM; TGI (SW-620 colon): > 100 µM; TGI (T-47D breast): > 100 µM; TGI (TK-10 renal): > 100 µM; TGI (UACC-257 melanoma): > 100 µM; TGI (UACC-62 melanoma): > 100 µM; TGI (UO-31 renal): > 100 µM
